According to patent US6057335A, “Pyrazole derivatives” (Banyu Pharmaceutical Co., Ltd., priority 1996, dated 2000):

Biological target: T1, human NPY Y5 receptor (Homo sapiens, UniProt Q15761)
T1 construct: expressed in transfected cells; host or cells: COS-7, CHO and LM(tk-)
T1 sequence (Q15761 1-445): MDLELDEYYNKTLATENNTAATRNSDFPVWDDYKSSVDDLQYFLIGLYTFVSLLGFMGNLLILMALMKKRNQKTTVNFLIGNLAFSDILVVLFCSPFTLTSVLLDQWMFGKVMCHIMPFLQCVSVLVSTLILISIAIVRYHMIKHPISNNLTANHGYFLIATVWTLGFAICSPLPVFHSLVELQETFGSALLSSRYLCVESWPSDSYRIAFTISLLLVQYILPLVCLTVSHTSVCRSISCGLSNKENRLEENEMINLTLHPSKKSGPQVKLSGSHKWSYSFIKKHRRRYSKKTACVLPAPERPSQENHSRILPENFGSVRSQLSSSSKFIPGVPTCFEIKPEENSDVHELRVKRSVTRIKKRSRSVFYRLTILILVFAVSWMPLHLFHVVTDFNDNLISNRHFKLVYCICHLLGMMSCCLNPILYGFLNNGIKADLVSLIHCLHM
Assay: test of inhibition of NPY binding ([125I] peptide YY binding to NPY Y5 receptor)
Settings: [125I] peptide YY 20,000 cpm, 25° C., 2 hours, pH 7.4, membrane preparations of cells expressing NPY Y5 receptor; read-out: IC50 value (concentration needed to inhibit 50% of the specific binding to the peptide YY)
Source text: Pharmacological Test Example 1 (test of inhibition of NPY binding)
cDNA Sequence encoding a human NPY Y5 receptor [International Publication WO 96/16542] was cloned into expression vectors pcDNA3, pRc/RSV (manufactured by Invitrogen) and pCI-neo (manufactured by Promega). Using the cationic lipid method [see Proceedings of the National Academy of Science of the United States of America, vol.84, p.7413 (1987)], host cells COS-7, CHO and LM(tk-) (American Type Culture Collection) were transfected with the thus prepared expression vectors to obtain cells in which the NPY Y5 receptor had been expressed.
Each of the membrane preparations thus prepared from the cells in which the NPY Y5 receptor had been expressed was incubated together with each compound to be tested and 20,000 cpm of [^125 I] peptide YY (manufactured by Amersham) at 25° C. for 2 hours in an assay buffer solution (25 mM HEPES buffer, pH 7.4, containing 10 mM magnesium chloride, 1 mM phenylmethylsulfonyl fluoride and 0.1% bacitracin) and then, the reaction mixture was filtered through a glass filter GF/C. After washing with 50 mM Tris buffer, pH 7.4, containing 0.3% BSA, radioactivity on the glass filter was measured using a gamma counter. […]

## COc1ccc(-c2cc(NC(=O)C3Cc4cc5ccccc5cc4C3)n[nH]2)cc1OC [Example 30, 3-(2,3-dibydro-1H-cyclopenta[b]naphthalen-2-yl)carbonylamino-5-(3,4-dimethoxyphenyl)pyrazole]
  IC50: 2.5 nM
